{"source": "patent US20140023611A1", "about": "(priority 2010, published 2014)", "key": {"human NaP2b (SLC34A2)": {"molecular_target": "T1, human NaP2b (SLC34A2) (Homo sapiens, UniProt O95436)", "T1 construct": "host or cells: HEK293", "T1 sequence (O95436 1-690)": "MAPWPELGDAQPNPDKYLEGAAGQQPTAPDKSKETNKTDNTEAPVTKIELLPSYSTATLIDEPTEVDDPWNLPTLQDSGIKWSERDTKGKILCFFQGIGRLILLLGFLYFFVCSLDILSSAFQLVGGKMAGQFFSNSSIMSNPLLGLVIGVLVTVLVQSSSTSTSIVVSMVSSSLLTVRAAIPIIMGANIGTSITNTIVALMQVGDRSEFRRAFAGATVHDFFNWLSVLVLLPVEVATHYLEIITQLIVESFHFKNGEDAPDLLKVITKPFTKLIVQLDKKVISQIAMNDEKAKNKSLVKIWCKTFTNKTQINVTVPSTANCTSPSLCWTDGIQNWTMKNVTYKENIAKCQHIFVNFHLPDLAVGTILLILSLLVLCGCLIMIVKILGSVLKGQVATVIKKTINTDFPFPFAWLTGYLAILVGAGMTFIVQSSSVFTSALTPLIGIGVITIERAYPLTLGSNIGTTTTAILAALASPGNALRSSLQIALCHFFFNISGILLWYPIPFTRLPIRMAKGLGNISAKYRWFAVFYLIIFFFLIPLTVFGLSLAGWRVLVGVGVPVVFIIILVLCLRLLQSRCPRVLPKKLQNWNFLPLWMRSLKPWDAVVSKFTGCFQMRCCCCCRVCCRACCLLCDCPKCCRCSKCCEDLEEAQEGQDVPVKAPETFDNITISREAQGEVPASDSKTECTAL", "test": "Inhibition of NaP2b-mediated Pi (33P) uptake in transfected HEK293 cells, human NaP2b", "type": "cell-based", "settings": "read-out: pIC50 range for human NaP2b (converted)", "description": "HEK293 cells were obtained from the American Type Culture collection and propagated per their instructions. Expression clones for rat and human NaP2b (SLC34A2) were obtained from Open Biosystems (Catalog numbers MRN1768-9510282, and MHS1010-99823026, respectively). The sequence of the human protein was mutated to insert a threonine after residue 37, and to introduce a N39D mutation.\nThe rate of phosphate (Pi) uptake into HEK293 cells was measured using a modification of the method described by Mohrmann et al. (Mohrmann, I., Mohrmann, M., Biber, J., and Murer, H. (1986) Am. J. Phys. 250(3 Pt 1):G323-30.) Transfected HEK293 cells were treated with a pharmacological agent to minimize endogenous PiT-mediated phosphate transport activity, such that the only remaining sodium-dependent phosphate transport activity is that which was bestowed by introduction of the NaP2b genes.\nCells were seeded into 96-well plates at 25,000 cells/well and cultured overnight. Lipofectamine 2000 (Invitrogen) was used to introduce the NaP2b cDNA, and the cells were allowed to approach confluence during a second overnight incubation. […] Cells were then overlayed with either choline uptake buffer or sodium uptake buffer (14 mM Tris, 137 mM sodium chloride, 5.4 mM KCl, 2.8 mM CaCl2, 1.2 mM MgSO4, 100 uM KH2PO4, PiT-silencing agent, 1 mg/mL Bovine Serum Albumin, pH 7.4) containing 6-9 uCi/mL ^33P orthophosphoric acid (Perkin Elmer) and test compound. Each compound was tested at twelve concentrations ranging from 0.1 nM to 30 uM. Assays were run in duplicate.\nAfter incubation for 3-30 minutes at room temperature, assay mixtures were removed, and the cells were washed twice with ice cold stop solution (137 mM sodium chloride, 14 mM Tris, pH 7.4). Cells were lysed by addition of 20 μL 0.1% Tween 80 followed by 100 μL scintillation fluid, and counted using a TopCount (Perkin Elmer).\npIC50 (the negative log of the IC50) values of the test compounds were calculated using GraphPad Prism."}, "rat NaP2b (SLC34A2)": {"molecular_target": "T2, rat NaP2b (SLC34A2) (Rattus norvegicus, UniProt Q9JJ09)", "T2 construct": "host or cells: HEK293", "T2 sequence (Q9JJ09 1-695)": "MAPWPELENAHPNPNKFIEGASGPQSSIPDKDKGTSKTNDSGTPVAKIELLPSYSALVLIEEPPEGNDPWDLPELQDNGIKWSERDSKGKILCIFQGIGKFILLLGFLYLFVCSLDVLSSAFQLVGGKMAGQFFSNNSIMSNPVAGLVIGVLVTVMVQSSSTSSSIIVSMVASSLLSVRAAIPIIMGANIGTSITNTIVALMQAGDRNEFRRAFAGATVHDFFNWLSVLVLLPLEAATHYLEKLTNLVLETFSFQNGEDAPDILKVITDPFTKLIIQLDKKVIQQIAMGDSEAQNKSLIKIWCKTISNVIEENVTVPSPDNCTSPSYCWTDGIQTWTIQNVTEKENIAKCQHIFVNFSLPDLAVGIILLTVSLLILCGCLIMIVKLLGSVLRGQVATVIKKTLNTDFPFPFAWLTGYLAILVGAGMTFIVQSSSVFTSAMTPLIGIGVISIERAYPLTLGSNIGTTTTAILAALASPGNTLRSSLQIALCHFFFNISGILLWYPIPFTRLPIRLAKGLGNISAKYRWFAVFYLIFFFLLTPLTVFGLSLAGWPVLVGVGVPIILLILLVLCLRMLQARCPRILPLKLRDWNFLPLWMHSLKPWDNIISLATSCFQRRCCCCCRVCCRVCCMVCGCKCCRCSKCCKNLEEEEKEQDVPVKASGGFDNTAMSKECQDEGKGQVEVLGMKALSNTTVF", "test": "Inhibition of NaP2b-mediated Pi (33P) uptake in transfected HEK293 cells, rat NaP2b", "type": "cell-based", "settings": "33P Pi uptake, 0.1 mM phosphate, value given as pIC50 range", "in_short": "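HEK293 cells were transiently transfected with NaP2b cDNA using Lipofectamine and grown near confluence. Compounds were tested at twelve concentrations from 0.1 nM to 30 uM in duplicate, and 33P-phosphate uptake was counted by scintillation after lysis. Results are expressed as pIC50.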"}}}
{"molecule": "CN(CCN1CCC[C@H]1C(=O)NCCOCCOCCOCCC(=O)OC(C)(C)C)C(=O)c1cccc(C(=O)Nc2ccc(N3CCCCC3)cc2-c2cc(C(=O)N[C@H]3CCCc4ccccc43)ccn2)c1", "note": "[Example 192, tert-butyl 1-((S)-1-(2-(N-methyl-3-((4-(piperidin-1-yl)-2-(4-(((S)-1,2,3,4-tetrahydronaphthalen-1-yl)carbamoyl)pyridin-2-yl)phenyl)carbamoyl)benzamido)ethyl)pyrrolidin-2-yl)-1-oxo-5,8,11-trioxa-2-azatetradecan-14-oate]", "values": [{"measurement": "IC50", "setting": "human NaP2b (SLC34A2)", "result": "< 1000", "unit": "nM"}, {"measurement": "IC50", "setting": "rat NaP2b (SLC34A2)", "result": "< 1000", "unit": "nM"}]}
{"molecule": "CCN(CC)c1ccc(NC(=O)c2cccc(C(=O)N(C)CCN3CCCC[C@H]3C(=O)NCCOCCOCCOCCOCCOCCOCCOCCOC)c2)c(-c2cc(C(=O)NCc3cccc(C(F)(F)F)c3)ccn2)c1", "note": "[Example 201, (S)—N^1-(2-(2-(2,5,8,11,14,17,20,23-octaoxapentacosan-25-yl-carbamoyl)piperidin-1-yl)ethyl)-N^3-(4-(diethylamino)-2-(4-((3-(trifluoromethyl)benzyl)carbamoyl)pyridin-2-yl)phenyl)-N^1-methylisophthalamide]", "values": [{"measurement": "IC50", "setting": "human NaP2b (SLC34A2)", "result": "1000 to 7940", "unit": "nM"}, {"measurement": "IC50", "setting": "rat NaP2b (SLC34A2)", "result": "1000 to 7940", "unit": "nM"}]}
{"molecule": "CCN(CC)c1ccc(NC(=O)c2cccc(C(=O)N(C)CCN3CCN(C(=O)N(C)CCOCCOCCOCCC(=O)OC(C)(C)C)CC3)c2)c(-c2cc(C(=O)N[C@H]3CCCc4ccccc43)ccn2)c1", "note": "[Example 212, tert-butyl 3-[2-(2-{2-[(4-{2-[1-(3-{[4-(diethylamino)-2-(4-{[(1S)-1,2,3,4-tetrahydronaphthalen-1-yl]carbamoyl}pyridin-2-yl)phenyl]carbamoyl}phenyl)-N-methylformamido]ethyl}piperazin-1-yl)carbonyl(methyl)amino]ethoxy}ethoxy)ethoxy]propanoate]", "values": [{"measurement": "IC50", "setting": "human NaP2b (SLC34A2)", "result": "< 1000", "unit": "nM"}, {"measurement": "IC50", "setting": "rat NaP2b (SLC34A2)", "result": "< 1000", "unit": "nM"}]}
{"molecule": "COCCOCCOCCOCCOCCOCCOCCOCC(=O)N1CCCN(CCN(C)C(=O)c2cccc(C(=O)Nc3ccc(N4CCCCC4)cc3-c3cc(C(=O)N[C@H]4CCCc5ccccc54)ccn3)c2)CC1", "note": "[Example 213, (S)—N1-(2-(4-2,5,8,11,14,17,20,23-octaoxapentacosane-1,4-diazepan-1-yl)ethyl)-N1-methyl-N3-(4-(piperidin-1-yl)-2-(4-(1,2,3,4-tetrahydronaphthalen-1-ylcarbamoyl)pyridin-2-yl)phenyl)isophthalamide]", "values": [{"measurement": "IC50", "setting": "human NaP2b (SLC34A2)", "result": "1000 to 7940", "unit": "nM"}, {"measurement": "IC50", "setting": "rat NaP2b (SLC34A2)", "result": "10000 to 31600", "unit": "nM"}]}
{"molecule": "COCCOCCOCCOCCOCCOCCOCCOC(=O)N1CCCN(CCN(C)C(=O)c2cccc(C(=O)Nc3ccc(N4CCCCC4)cc3-c3cc(C(=O)N[C@H]4CCCc5ccccc54)ccn3)c2)CC1", "note": "[Example 214, (S)-2,5,8,11,14,17,20-heptaoxadocosan-22-yl 4-(2-(N-methyl-3-(4-(piperidin-1-yl)-2-(4-(1,2,3,4-tetrahydronaphthalen-1-ylcarbamoyl)pyridin-2-yl)phenylcarbamoyl)benzamido)ethyl)-1,4-diazepane-1-carboxylate]", "values": [{"measurement": "IC50", "setting": "human NaP2b (SLC34A2)", "result": "1000 to 7940", "unit": "nM"}, {"measurement": "IC50", "setting": "rat NaP2b (SLC34A2)", "result": "1000 to 7940", "unit": "nM"}]}
{"molecule": "CN(CCN1CCCN(C(=O)OC(C)(C)C)CC1)C(=O)c1cccc(C(=O)Nc2ccc(N3CCCCC3)cc2-c2cc(C(=O)N[C@H]3CCCc4ccccc43)ccn2)c1", "note": "[Example 219, (S)-tert-butyl 4-(2-(N-methyl-3-(4-(piperidin-1-yl)-2-(4-(1,2,3,4-tetrahydronaphthalen-1-ylcarbamoyl)pyridin-2-yl)phenylcarbamoyl)benzamido)ethyl)-1,4-diazepane-1-carboxylate]", "values": [{"measurement": "IC50", "setting": "human NaP2b (SLC34A2)", "result": "< 1000", "unit": "nM"}, {"measurement": "IC50", "setting": "rat NaP2b (SLC34A2)", "result": "< 1000", "unit": "nM"}]}
{"molecule": "CN(CCN1CCCN(S(C)(=O)=O)CC1)C(=O)c1cccc(C(=O)Nc2ccc(N3CCCCC3)cc2-c2cc(C(=O)N[C@H]3CCCc4ccccc43)ccn2)c1", "note": "[Example 220, (S)—N1-methyl-N1-(2-(4-(methylsulfonyl)-1,4-diazepan-1-yl)ethyl)-N3-(4-(piperidin-1-yl)-2-(4-(1,2,3,4-tetrahydronaphthalen-1-ylcarbamoyl)pyridin-2-yl)phenyl)isophthalamide]", "values": [{"measurement": "IC50", "setting": "human NaP2b (SLC34A2)", "result": "1000 to 7940", "unit": "nM"}, {"measurement": "IC50", "setting": "rat NaP2b (SLC34A2)", "result": "< 1000", "unit": "nM"}]}
{"molecule": "CCN(CC)c1ccc(NC(=O)c2cccc(C(=O)N(C)CCN(C)CCOCCOCCOCCN=[N+]=[N-])c2)c(-c2cc(C(=O)N[C@H]3CCCc4ccccc43)ccn2)c1", "note": "[Example 222, (S)—N1-(14-azido-3-methyl-6,9,12-trioxa-3-azatetradecyl)-N3-(4-(diethylamino)-2-(4-(1,2,3,4-tetrahydronaphthalen-1-ylcarbamoyl)pyridin-2-yl)phenyl)-N1-methylisophthalamide]", "values": [{"measurement": "IC50", "setting": "human NaP2b (SLC34A2)", "result": "< 1000", "unit": "nM"}, {"measurement": "IC50", "setting": "rat NaP2b (SLC34A2)", "result": "< 1000", "unit": "nM"}]}
{"molecule": "CCN(CC)c1ccc(NC(=O)c2cccc(C(=O)N(C)CCN(C)CCOCCOCCOCCNC(=O)NCCN3CCOCC3)c2)c(-c2cc(C(=O)N[C@H]3CCCc4ccccc43)ccn2)c1", "note": "[Example 223, (S)—N1-(4-(diethylamino)-2-(4-(1,2,3,4-tetrahydronaphthalen-1-ylcarbamoyl)pyridin-2-yl)phenyl)-N3-methyl-N3-(17-methyl-1-morpholino-4-oxo-8,11,14-trioxa-3,5,17-triazanonadecan-19-yl)isophthalamide]", "values": [{"measurement": "IC50", "setting": "human NaP2b (SLC34A2)", "result": "> 31600", "unit": "nM"}, {"measurement": "IC50", "setting": "rat NaP2b (SLC34A2)", "result": "10000 to 31600", "unit": "nM"}]}
{"molecule": "CCN(CC)c1ccc(NC(=O)c2cccc(C(=O)N(C)CCN(C)CCOCCOCCOCCNS(C)(=O)=O)c2)c(-c2cc(C(=O)N[C@H]3CCCc4ccccc43)ccn2)c1", "note": "[Example 226, 3-N-[4-(diethylamino)-2-(4-{[(1S)-1,2,3,4-tetrahydronaphthalen-1-yl]carbamoyl}pyridin-2-yl)phenyl]-1-N-(1-methanesulfonamido-12-methyl-3,6,9-trioxa-12-azatetradecan-14-yl)-1-N-methylbenzene-1,3-dicarboxamide]", "values": [{"measurement": "IC50", "setting": "human NaP2b (SLC34A2)", "result": "1000 to 7940", "unit": "nM"}, {"measurement": "IC50", "setting": "rat NaP2b (SLC34A2)", "result": "< 1000", "unit": "nM"}]}
{"molecule": "CCN(CC)c1ccc(NC(=O)c2cccc(C(=O)N(C)CCN3CCN(C(=O)COCCOCCOCCOCCOCCOCCOCCOC)CC3)c2)c(-c2cc(C(=O)N[C@H]3CCCc4ccccc43)ccn2)c1", "note": "[Example 227, (S)—N1-(2-(4-2,5,8,11,14,17,20,23-octaoxapentacosanepiperazin-1-yl)ethyl)-N3-(4-(diethylamino)-2-(4-(1,2,3,4-tetrahydronaphthalen-1-ylcarbamoyl)pyridin-2-yl)phenyl)-N1-methylisophthalamide]", "values": [{"measurement": "IC50", "setting": "human NaP2b (SLC34A2)", "result": "1000 to 7940", "unit": "nM"}, {"measurement": "IC50", "setting": "rat NaP2b (SLC34A2)", "result": "1000 to 7940", "unit": "nM"}]}
